The values that follow come from ChEMBL document CHEMBL1201862, “PubChem BioAssay data set” (2004).

The source made the active and inactive calls.

One assay deals with Vero. Put plainly: Vero cell toxicity, dose response, cytotoxicity control, plate reader, cherry-pick samples (AID 687020). The following applies: Chlorocebus sabaeus. It counts as functional, cell-based.
Assay [1] has as its target Fructose-bisphosphate aldolase (Mycobacterium tuberculosis, UniProt P9WQA3). As to the kind of experiment: Fluorescence-based biochemical high throughput dose response assay for inhibitors of the fructose-bisphosphate aldolase (FBA) of M. tuberculosis. It counts as functional.
Assay [2] addresses T1, Low molecular weight phosphotyrosine protein phosphatase (Homo sapiens, UniProt P24666).
T1 sequence (P24666 whole entry): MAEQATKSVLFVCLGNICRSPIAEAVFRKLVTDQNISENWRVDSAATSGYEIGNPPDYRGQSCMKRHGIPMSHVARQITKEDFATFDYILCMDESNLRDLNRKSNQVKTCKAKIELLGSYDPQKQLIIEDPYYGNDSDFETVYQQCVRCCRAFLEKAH
The class given is functional. The following applies: read-out: IC50_Mean.

For the next assay, the target named is Caspase-7 (Homo sapiens, UniProt P55210). Put plainly: human caspase-7 inhibitors, dose response, selectivity assay for caspase-6 inhibitor project, biochemical, DEVD-R110 fluorescence, cherry-pick (AID 743295). It counts as […].
A further assay concerns the target T2, Caspase-6 (Homo sapiens, UniProt P55212).
T2 sequence (P55212 whole entry): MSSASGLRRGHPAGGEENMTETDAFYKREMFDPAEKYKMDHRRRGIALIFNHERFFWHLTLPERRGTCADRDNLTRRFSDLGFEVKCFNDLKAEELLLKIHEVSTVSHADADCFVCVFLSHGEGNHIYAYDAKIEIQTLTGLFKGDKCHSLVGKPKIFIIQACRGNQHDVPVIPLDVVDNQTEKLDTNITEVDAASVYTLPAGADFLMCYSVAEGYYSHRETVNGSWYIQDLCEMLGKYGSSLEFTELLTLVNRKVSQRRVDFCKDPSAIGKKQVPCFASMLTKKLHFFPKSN
Put plainly: human caspase-6 inhibitors, dose response, biochemical, VEID-R110 fluorescence, cherry-pick (AID 720632).

Assay [3] is described as follows: cells. It counts as functional, cell-based.
Assay [4] has as its target T3, Nuclear receptor subfamily 0 group B member 1 (Homo sapiens, UniProt P51843).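 Note: HEK293T cells transfected with SF-1 and DAX-1 plus StAR promoter luciferase reporter.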
T3 sequence (P51843 whole entry): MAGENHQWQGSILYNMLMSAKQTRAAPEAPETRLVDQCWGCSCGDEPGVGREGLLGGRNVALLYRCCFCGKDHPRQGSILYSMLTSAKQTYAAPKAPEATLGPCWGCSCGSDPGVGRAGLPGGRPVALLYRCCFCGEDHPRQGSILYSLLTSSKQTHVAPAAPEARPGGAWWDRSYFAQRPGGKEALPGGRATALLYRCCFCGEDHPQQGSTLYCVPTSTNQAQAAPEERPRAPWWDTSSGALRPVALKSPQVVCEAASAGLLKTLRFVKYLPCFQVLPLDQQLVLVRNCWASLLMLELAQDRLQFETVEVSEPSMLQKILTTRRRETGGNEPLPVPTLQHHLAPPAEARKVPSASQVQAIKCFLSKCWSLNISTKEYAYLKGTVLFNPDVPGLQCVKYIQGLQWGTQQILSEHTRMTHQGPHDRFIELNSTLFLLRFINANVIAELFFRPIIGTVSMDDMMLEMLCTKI
The class given is functional, cell-based.

A short description of assay [5]: miR-122 activators in hepatoma reporter cells, dose response, cell-based, Huh7 psiCHECK-miR122, Renilla luciferase, cherry-picked (AID 651956).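 Note: huh7 hepatoma cells stably carrying a psiCHECK-2 miR-122 sensor plasmid; renilla luciferase signal reporting endogenous miR-122 activity after 48 h compound exposure.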 It counts as functional.
The target of assay [6] is T4, DNA repair protein RAD52 homolog (Homo sapiens, UniProt P43351).
T4 sequence (P43351 whole entry): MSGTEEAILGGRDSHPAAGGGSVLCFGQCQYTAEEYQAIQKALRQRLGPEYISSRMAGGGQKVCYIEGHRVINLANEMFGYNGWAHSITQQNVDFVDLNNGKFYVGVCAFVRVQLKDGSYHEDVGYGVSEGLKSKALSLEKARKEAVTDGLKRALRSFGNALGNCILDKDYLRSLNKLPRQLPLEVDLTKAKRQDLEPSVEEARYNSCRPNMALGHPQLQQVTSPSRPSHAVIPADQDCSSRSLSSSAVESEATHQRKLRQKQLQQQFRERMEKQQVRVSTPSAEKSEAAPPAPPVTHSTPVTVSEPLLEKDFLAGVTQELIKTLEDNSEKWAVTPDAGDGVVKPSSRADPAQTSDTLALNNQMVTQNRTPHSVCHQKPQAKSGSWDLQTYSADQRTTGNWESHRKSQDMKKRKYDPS
The class given is functional, biochemical.

For assay [7], the target named is DNA repair and recombination protein RAD54-like (Homo sapiens, UniProt Q92698). Put plainly: inhibitors of human RAD54 branch migration, confirmation, biochemical, fluorescence, cherry-picked samples, dose series (AID 651657). The class given is functional.
Assay [8] in a line: THP-1 cell cytotoxicity, dose response, cytotoxicity control for Vif-APOBEC3G degradation inhibitor project, THP-1 cells (AID 1117359). The class given is functional. As to conditions: Human immunodeficiency virus 1, THP-1.
Assay [9] in a line: cytotoxicity toward NIH3T3 fibroblasts, dose response, counter-screen, cell-based, ATP luminescence, mouse fibroblasts (AID 2010).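 Note: cells exposed to compound for about 90 hours before reading.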 The class given is functional.
Assay [10] deals with T5, Fatty acid synthase (Homo sapiens, UniProt P49327). As to the kind of experiment: FAS thioesterase domain inhibitors, dose response, biochemical, kinetic fluorescence intensity (AID 624326).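 Note: rate of fluorescence rise from hydrolysis of a fluorogenic O-methyl fluorescein ester substrate.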 The class given is functional.
Assay [11] can be described thus: HEK293T cytotoxicity, dose response, cytotoxicity control for miR-122 modulator project, cell-based, activator set, cherry-pick (AID 720690).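 Note: HEK293T human cells scored for general mammalian cytotoxicity.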 The class given is functional.
Assay [12] in a line: Luminescence Cell-Based Dose Retest to Confirm Inhibitors of Cancer Stem Cells. [Related pubchem assays (depositor defined):AID2717, AID2721]. The class given is functional. As to conditions: Homo sapiens.
A short description of assay [13]: inhibitors of intracellular T. cruzi replication, confirmation, NIH3T3 host cells, beta-gal luminescence (AID 2044).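 Note: intracellular parasites grown in NIH/3T3 mouse fibroblasts as host cells; luminescent beta-galactosidase reporter signal from transgenic T. cruzi replicating inside host cells; inhibitors lower the luminescence signal.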 The class given is functional, cell-based.
Assay [14] deals with T5, Fatty acid synthase. Put plainly: FAS thioesterase domain inhibitors, dose response, biochemical, endpoint fluorescence intensity, uHTS hits (AID 624327).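 Note: fluorescence from hydrolysis of an O-methyl fluorescein acyl ester substrate by the enzyme.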 It counts as functional.
A short description of assay [15]: HEK293T cytotoxicity, dose response, cytotoxicity control for miR-122 modulator project, cell-based, inhibitor set, cherry-pick, set 2 (AID 720697). It counts as functional.
A short description of assay [16]: cells.
In assay [17] the target is T6, Oxysterols receptor LXR-beta (Homo sapiens, UniProt P55055).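 Note: Cell-based luminescence dose-response assay of agonist activity at LXR, run as a confirmatory counterscreen to a daf-12 agonist screen; HEK293 cells with Gal4-LXR fusion and GAL4-driven luciferase reporter; agonist potency from rising luciferase signal of a Gal4-LXR reporter.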
T6 sequence (P55055 whole entry): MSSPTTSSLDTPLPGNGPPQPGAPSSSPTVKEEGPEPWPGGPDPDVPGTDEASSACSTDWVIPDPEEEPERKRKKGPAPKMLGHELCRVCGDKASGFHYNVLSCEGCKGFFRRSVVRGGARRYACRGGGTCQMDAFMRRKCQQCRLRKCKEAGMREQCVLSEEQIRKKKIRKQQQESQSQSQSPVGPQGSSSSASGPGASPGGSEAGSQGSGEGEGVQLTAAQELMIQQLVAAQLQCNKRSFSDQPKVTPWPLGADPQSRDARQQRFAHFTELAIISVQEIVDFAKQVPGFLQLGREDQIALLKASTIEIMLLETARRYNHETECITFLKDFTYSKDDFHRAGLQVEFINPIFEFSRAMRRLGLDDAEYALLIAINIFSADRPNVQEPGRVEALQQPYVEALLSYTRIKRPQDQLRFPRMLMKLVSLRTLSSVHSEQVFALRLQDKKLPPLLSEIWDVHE
The class given is functional, cell-based.
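Throughout, for IC50 Mean: Dose-response confirmation assay measuring inhibition of LMPTP enzyme activity by fluorescence intensity read-out.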

T5 sequence (P49327 whole entry, the tested form may be a part): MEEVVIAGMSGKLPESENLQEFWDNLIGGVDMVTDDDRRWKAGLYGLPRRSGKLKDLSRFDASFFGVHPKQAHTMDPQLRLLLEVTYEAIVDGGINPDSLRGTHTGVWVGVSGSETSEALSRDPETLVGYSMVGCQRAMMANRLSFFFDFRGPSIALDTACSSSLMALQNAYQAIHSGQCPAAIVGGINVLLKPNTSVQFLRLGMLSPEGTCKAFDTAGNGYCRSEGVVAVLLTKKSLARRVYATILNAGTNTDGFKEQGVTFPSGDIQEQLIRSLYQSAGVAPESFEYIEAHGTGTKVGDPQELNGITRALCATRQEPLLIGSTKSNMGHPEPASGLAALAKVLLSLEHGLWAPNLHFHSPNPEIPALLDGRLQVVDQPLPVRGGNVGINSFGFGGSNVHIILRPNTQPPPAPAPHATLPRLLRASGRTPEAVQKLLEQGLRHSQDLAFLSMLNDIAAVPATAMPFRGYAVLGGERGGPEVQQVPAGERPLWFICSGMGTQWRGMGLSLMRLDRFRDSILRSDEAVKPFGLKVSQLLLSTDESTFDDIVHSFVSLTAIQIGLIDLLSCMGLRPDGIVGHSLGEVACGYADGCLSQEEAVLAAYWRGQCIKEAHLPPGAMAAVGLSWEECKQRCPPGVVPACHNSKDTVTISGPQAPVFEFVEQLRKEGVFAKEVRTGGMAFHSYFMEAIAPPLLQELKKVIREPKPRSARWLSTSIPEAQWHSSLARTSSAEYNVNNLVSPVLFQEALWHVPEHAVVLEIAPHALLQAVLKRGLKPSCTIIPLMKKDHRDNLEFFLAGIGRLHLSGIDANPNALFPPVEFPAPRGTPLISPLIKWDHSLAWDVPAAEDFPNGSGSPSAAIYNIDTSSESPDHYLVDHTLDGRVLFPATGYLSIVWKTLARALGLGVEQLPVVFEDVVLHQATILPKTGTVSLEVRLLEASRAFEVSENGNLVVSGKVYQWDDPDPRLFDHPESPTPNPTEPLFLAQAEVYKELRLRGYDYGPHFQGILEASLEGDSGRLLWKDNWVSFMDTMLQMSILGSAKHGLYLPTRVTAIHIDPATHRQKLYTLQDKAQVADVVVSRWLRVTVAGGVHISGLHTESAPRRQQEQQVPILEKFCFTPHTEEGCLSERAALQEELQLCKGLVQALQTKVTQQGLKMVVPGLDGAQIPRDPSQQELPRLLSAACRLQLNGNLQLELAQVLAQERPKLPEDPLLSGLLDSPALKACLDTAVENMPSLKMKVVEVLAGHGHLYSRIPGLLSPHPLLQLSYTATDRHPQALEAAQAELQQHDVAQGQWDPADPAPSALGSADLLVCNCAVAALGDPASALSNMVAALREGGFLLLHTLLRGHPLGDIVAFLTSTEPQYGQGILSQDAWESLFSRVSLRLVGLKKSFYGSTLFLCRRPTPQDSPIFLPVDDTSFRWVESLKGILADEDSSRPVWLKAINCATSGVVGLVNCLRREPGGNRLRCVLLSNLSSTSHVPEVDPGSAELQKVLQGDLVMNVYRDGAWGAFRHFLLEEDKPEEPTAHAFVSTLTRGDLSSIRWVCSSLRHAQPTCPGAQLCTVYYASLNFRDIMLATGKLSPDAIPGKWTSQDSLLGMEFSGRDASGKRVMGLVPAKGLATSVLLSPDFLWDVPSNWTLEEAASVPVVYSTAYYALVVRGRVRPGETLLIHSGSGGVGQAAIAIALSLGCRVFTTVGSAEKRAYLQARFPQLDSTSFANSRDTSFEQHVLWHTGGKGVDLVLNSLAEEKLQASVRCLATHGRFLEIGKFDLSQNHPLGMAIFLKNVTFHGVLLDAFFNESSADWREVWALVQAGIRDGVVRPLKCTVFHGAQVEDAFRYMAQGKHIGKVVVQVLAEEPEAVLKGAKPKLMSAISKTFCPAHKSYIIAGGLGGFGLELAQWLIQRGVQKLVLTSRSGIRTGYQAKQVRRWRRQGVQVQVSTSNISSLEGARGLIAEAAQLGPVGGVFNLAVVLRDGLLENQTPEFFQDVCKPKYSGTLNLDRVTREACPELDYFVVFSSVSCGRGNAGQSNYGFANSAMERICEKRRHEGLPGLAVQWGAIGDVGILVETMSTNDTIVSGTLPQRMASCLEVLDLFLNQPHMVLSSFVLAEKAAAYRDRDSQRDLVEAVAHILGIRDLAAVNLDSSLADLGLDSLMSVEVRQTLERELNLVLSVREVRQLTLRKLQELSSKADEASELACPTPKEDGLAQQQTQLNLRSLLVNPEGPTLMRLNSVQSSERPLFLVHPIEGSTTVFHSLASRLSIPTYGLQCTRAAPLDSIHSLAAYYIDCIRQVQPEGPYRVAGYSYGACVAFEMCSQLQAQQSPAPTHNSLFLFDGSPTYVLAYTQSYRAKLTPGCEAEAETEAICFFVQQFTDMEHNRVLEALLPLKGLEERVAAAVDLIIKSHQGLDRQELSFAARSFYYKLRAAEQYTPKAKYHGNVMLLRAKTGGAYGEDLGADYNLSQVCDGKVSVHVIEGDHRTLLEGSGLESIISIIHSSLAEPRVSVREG
Chain of DNA repair and recombination protein RAD54-like (Q92698 whole entry): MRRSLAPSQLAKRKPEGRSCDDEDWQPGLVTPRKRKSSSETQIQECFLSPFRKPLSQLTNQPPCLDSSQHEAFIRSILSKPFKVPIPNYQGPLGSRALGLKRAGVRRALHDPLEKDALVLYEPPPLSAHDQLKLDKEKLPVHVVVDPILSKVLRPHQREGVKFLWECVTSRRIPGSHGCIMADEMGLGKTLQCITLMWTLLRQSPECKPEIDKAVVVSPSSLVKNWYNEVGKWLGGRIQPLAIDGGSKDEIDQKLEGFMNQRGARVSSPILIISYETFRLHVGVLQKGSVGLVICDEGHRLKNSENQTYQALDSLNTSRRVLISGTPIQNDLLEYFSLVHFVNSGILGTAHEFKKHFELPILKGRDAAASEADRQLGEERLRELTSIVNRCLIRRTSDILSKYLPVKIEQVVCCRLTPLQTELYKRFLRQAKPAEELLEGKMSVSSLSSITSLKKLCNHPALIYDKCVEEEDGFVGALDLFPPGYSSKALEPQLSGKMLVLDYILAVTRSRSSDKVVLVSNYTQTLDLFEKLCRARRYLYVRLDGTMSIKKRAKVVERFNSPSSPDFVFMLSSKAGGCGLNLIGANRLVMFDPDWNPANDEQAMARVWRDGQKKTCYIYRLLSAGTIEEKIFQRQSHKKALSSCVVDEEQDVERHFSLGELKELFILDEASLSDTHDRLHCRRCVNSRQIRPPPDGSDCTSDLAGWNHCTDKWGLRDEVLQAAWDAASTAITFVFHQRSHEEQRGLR
Chain of Caspase-7 (P55210 24-198 limits assumed): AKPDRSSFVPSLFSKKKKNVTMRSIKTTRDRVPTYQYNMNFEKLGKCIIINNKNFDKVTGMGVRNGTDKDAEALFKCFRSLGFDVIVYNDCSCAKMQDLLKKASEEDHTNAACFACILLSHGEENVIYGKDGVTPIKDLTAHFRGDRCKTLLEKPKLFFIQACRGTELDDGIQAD
Chain of Caspase-7 (P55210 207-303 limits assumed): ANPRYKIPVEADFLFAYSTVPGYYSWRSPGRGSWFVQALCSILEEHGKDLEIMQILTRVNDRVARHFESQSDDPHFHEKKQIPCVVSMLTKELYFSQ
Chain of Fructose-bisphosphate aldolase (P9WQA3 whole entry): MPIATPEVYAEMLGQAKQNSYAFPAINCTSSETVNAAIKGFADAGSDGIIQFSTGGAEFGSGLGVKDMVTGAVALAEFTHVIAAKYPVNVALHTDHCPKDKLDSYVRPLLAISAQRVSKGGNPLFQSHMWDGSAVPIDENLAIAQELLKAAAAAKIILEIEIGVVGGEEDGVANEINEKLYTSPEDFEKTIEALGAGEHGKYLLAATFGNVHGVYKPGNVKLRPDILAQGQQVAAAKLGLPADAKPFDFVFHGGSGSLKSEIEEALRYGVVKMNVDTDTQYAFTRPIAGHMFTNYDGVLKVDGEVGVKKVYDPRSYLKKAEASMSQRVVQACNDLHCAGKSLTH

As to `COc1ccccc1CNC(=O)C(=O)Nc1ccc(C(=O)N2CCC(C)CC2)cc1`, the half-maximal activity concentration (AC50) (in general, the midpoint of the concentration-response curve, whichever way the signal moves) in the assay on Vero is 25.8 µM (active).
For the compound `COCCn1c(SCC(=O)N2CCCCC2)nc2c(c1=O)SCC2`, the IC50 in [1] is > 9.99 µM (inactive).
On to `CCOC(=O)c1sc2nc(OCCN3CCOCC3)cc(C)c2c1N`, for which the IC50 in assay [2] is 61.1 µM (inactive). For the same compound, the AC50 at Caspase-7 was 45.2 µM (active); at Caspase-6, 2.18 µM (active).
For `O=C(c1ccc2nc(Cc3ccccc3F)oc2c1)N1CC[C@H](O)C1`, the IC50 (in the assay “cells [3]”; in assay [4]) was > 67.6 µM (inactive) each time.
Consider `CN1C(=O)c2cc(NC(=O)Nc3cccc(Cl)c3)ccc2OC[C@@H]2O[C@H](CC(=O)NCCc3ccncc3)CC[C@H]21`, for which the AC50 in assay [5] is 16.1 µM (active).
Consider `CC(C)Oc1ccccc1OC1(C)CCN(Cc2ccc(OC(F)(F)F)cc2)C1` (stereo unspecified), for which the concentration at half-maximal activity (AC50) in the assay on Vero is 27.4 µM (active).
Take `CCOCCCN=C(S)Nc1ccc2nc(N3CCN(CC)CC3)cc(C)c2c1`: the results for the AC50 in [6] and in [7] were 33 µM (active) and 100 µM (inactive), respectively. For the same compound, the CC50 (commonly the concentration at which the toxic effect on the cells reaches its halfway point) in [8] is > 40 µM (active).
`CN(C)CCNc1nc2sc3c(c2c(=O)n1CCc1ccccc1)CCCCC3`: the results for the EC50 in assay [9] and in [13] were 30.9 µM (active) and 0.125 µM (active), respectively. The IC50 at Fatty acid synthase [10] was 19.3 µM (active); on Fatty acid synthase [14] it was 18.8 µM (active). Also, the half-maximal activity concentration (AC50) in [11] is 14.7 µM (active); in [12], 6.6 µM (active); in [15], 7.83 µM (active).
For `c1ccc(-c2noc(-c3cccc4ccccc34)n2)nc1`, the EC50 (in the assay “cells [16]”; in assay [17]) was > 67.5 µM (inactive) each time.
